According to patent publication US20250177481A1, “SCO-spondin-derived polypeptides for enhancing synaptic transmission” (AXOLTIS PHARMA, priority 2021, published 2025):
Positions of bridges follow the written chain, without caps; N, C: chain ends. No end group written: not given here.

Legend:
[1] = tested on: basal excitatory synaptic transmission at CA3-CA1 synapses; assay: fEPSP input-output (I/O) recordings in CA1 of mouse hippocampal slices; type: cell-based, C57Bl6/J mice; details: NX218 250 μg/mL; for Normalized fEPSP slope: normalized to max slope in vehicle, mean of 10 slices
Description: Comparison of postsynaptic responses in control versus NX218 peptide conditions were assessed.
Five (C57Bl6/J) male mice 4-5 weeks-old were obtained from Charles River, France and housed in an animal facility. Animal care was compliant with national and local Ethics committee recommendations. Ten Sagittal hippocampal brain slices (2 per mouse) were obtained using standard brain slicing methods (Knobloch et al. 2007). Mice were anesthetized with 5% isoflurane and then decapitated. Brain was dissected out of the cranium and immediately immersed in ice-cold freshly prepared artificial cerebrospinal fluid (aCSF) containing: 124 mM NaCl, 3.75 mM KCl, 2 mM MgSO4, 2 mM CaCl2, 26.5 mM NaHCO3, 1.25 mM NaH2PO4, 10 mM glucose, continuously oxygenated (95% O2, 5% CO2) (pH=7.4) for a total duration of 3-4 minutes. Acute slices (350 μm thick) were prepared using a vibratome (VT 1000S; Leica Microsystems, Bannockburn, IL). Sections were incubated in standard aCSF (124 mM NaCl, 3.75 mM KCl, 2 mM MgSO4, 2 mM CaCl2, 26.5 mM NaHCO3, 1.25 mM NaH2PO4, 10 mM glucose) at room temperature for at least 1 h before recordings.
For electrophysiological recordings, a single slice was placed in the recording chamber (room temperature), submerged and continuously superfused with gassed aCSF (95% O2, 5% CO2; pH=7.4) at a constant rate (2 mL min^−1) for the reminder of the experiment. Extracellular field excitatory postsynaptic potentials (fEPSPs) were recorded in the CA1 stratum radiatum using a glass micropipette filled with aCSF. fEPSPs were evoked by the electrical stimulation of Schaffer collateral-commissural pathway at 0.1 Hz (i.e., a single pulse every 10 s) with a glass stimulating electrode (borosilicate capillary glass with filament, standard wall; OD: 1.5 mm; ID: 0.86 mm; Length: 75 mm; ref: W3 30-0060 from Harvard Apparatus) placed in the stratum radiatum.
After 10 minutes of stabilization, basal synaptic transmission was assessed. […] This procedure was repeated 3 times, 30 seconds interval for each session. A single session final I/O curve was obtained by plotting the averaged rationalised slopes of fEPSPs as a function of the stimulation intensity.
The signal was amplified with an Axopatch 200B amplifier (Molecular Devices, Union City, CA) digitized by a Digidata 1322A interface (Axon Instruments, Molecular Devices, US) and sampled at 10 kHz. Recordings were acquired using Clampex (Molecular Devices) and analyzed with Clampfit (Molecular Devices).
All data was normalized from the fEPSP maximum slope recorded in control condition (during vehicle bath application). […] Potential outliers were identified for exclusion using the following criteria: >3 standard deviations away from the group mean in either direction.

[2] = tested on: pCREB; assay: pCREB protein level in cortical samples of subchronic PCP mice (WES automated protein analysis); type: in vivo, Swiss CD-1 mice; details: PCP + NX218 5 mg/kg D14; PCP alone 44.17; n=5
Description: PCP (or saline for control group) was administered at a dose of 0.2 mg/kg by subcutaneous injections twice daily for 12 days (day 0 to day 11).
Approximately 5 minutes after the test, mice were anaesthetized with 5% isoflurane oxygen mixture. Brains were extracted immediately, then the cortex of each hemisphere were collected. Right and left cortices were transferred into clean pre-labelled microtubes and the exact weight of each sample was recorded. Finally, samples were stored at −80° C. for further analysis.
Brain samples were lysed with a defined buffer lysis consisting of CelLyticMT reagent with 1% of protease and phosphatase inhibitor cocktail (60 μL per well). Lysates were processed at +4° C. and stored at −80° C. at the end of the experiment. For each sample, the quantity of proteins was determined using the micro kit BCA (Pierce). Briefly, lysates were centrifuged and diluted at 1/20 in PBS and mixed, in equal volume, with a micro BCA. After an incubation at 60° C. for 1 hour, the quantity of proteins was measured at 562 nm with a spectrophotometer Nanovue (GE Healthcare) and compared with the standard of Bovine Serum Albumin curve (BSA, Pierce).
Automated protein analysis were performed using the WES™ system (ProteinSimple®): […]
Each protein was evaluated independently. […] 5 samples (biological replicates) per condition were analyzed.

W-S-G-W-S-S-C-S-R-S-C-G [NX218] (WSGWSSCSRSCG; disulfide 7-11 (inferred))
change of basal excitatory synaptic transmission vs control condition (whole I/O curve) [1]: statistical increase
Normalized fEPSP slope ([1]; stimulation intensity 0 µA): 0.09%
Normalized fEPSP slope ([1]; stimulation intensity 50 µA): 30.78%
Normalized fEPSP slope ([1]; stimulation intensity 100 µA): 71.26%
Normalized fEPSP slope ([1]; stimulation intensity 150 µA): 110.51%
Normalized fEPSP slope ([1]; stimulation intensity 200 µA): 134.44%
Normalized fEPSP slope ([1]; stimulation intensity 250 µA): 149.89%
Normalized fEPSP slope ([1]; stimulation intensity 300 µA): 156.80%
Normalized fEPSP slope ([1]; stimulation intensity 350 µA): 160.72%
Normalized fEPSP slope ([1]; stimulation intensity 400 µA): 164.01%
Normalized fEPSP slope ([1]; stimulation intensity 450 µA): 164.39%
Normalized fEPSP slope ([1]; stimulation intensity 500 µA): 166.29%
Normalized fEPSP slope ([1]; stimulation intensity 550 µA): 167.00%
Normalized fEPSP slope ([1]; stimulation intensity 600 µA): 167.37%
Normalized fEPSP slope ([1]; stimulation intensity 650 µA): 168.66%
Normalized fEPSP slope ([1]; stimulation intensity 700 µA): 169.65%
Normalized fEPSP slope ([1]; stimulation intensity 750 µA): 169.89%
Normalized fEPSP slope ([1]; stimulation intensity 800 µA): 170.46%
Normalized fEPSP slope ([1]; stimulation intensity 850 µA): 171.65%
pCREB protein level in cortical samples [2]: 68.67 % of control
